Legend:
Plasmodium falciparum [1] = test: MMV: Inhibition of Plasmodium falciparum 3D7 (EC50).; assay type: functional, organism-based
[2] = test system: Trypanosoma brucei rhodesiense; test: MMV: Inhibition of Trypanosoma brucei rhodesiense (STIB 900) (HAT in vitro).; assay type: functional, organism-based
Leishmania infantum = test: MMV: Inhibition of Leishmania infantum (MHOM/MA/BE/67) in vitro.; assay type: functional, organism-based
[3] = test system: Trypanosoma brucei brucei; test: MMV: Inhibition of Trypanosoma brucei brucei (Squib 427) (HAT in vitro).; assay type: functional, organism-based
[4] = MMV: Cytotoxicity against human fibroblasts (MRC-5) cells.; settings: MRC-5 cells (human fibroblasts)
Trypanosoma cruzi = test: MMV: Inhibition of Trypanosoma cruzi (Tulahuen C4 LacZ) (Chagas in vitro).; assay type: functional, organism-based
Plasmodium falciparum [5] = test: MMV: Inhibition of Plasmodium falciparum 3D7 at 5uM compound concentration.; assay type: functional

Row | Structure (SMILES) | EC50 (Plasmodium falciparum [1]) [µM] | IC50 [2] [µM] | IC50 (Leishmania infantum) [µM] | IC50 [3] [µM] | IC50 [4] [µM] | IC50 (Trypanosoma cruzi) [µM] | inhibition at 5 µM (Plasmodium falciparum [5]) [%]
1 | CCOc1cc(CNC(C)C(O)c2ccccc2)cc(Cl)c1OCC (centres undefined) | 1.24 | 8.67 | 16.6 | 11.5 | > 32 | 25.4 | –
2 | Nc1nc(Nc2cccc(F)c2)nc2ccccc12 | 1 | 16.8 | 16 | 27.3 | > 32 | 20.2 | –
3 | CCOc1c(Cl)cc(CNCC(O)c2ccccc2)cc1OC (centres undefined) | 1.05 | 16.1 | > 32 | 11.9 | > 32 | > 32 | –
4 | COc1ccc2nc(C)cc(Nc3ccccc3O)c2c1 | 0.686 | > 32 | > 32 | > 32 | > 32 | > 32 | –
5 | COc1ccc(-c2nc(N3CCN(C(=O)C4CCCCC4)CC3)c3c4c(sc3n2)CCCC4)cc1 | 1.06 | 4.07 | 4.32 | 4.09 | > 32 | 7.45 | –
6 | Cc1cc(C)cc(Nc2cc(C)nc3nc(C(F)(F)F)nn23)c1 | 0.0857 | > 32 | > 32 | > 32 | > 32 | > 32 | –
7 | CCn1nc(-c2ccc(C(=O)OC)cc2)nc2c(=O)n(C)c(=O)nc1-2 | 0.693 | 0.803 | 4.06 | 0.28 | 3.53 | 0.81 | –
8 | CCOc1ccccc1CN1CCc2nc3cc(C(C)(C)C)nn3c(O)c2C1 | 1.01 | > 32 | > 32 | 28.9 | > 32 | > 32 | –
9 | O=C(NC1CCN(Cc2ccccc2)CC1)c1cc2nc(-c3ccc(Cl)s3)cc(C(F)(F)F)n2n1 | 0.959 | > 32 | 16 | > 32 | > 32 | > 32 | –
10 | Cc1sc(NC(=O)c2ccccc2)c(C(c2cccs2)N2CCN(c3ccccc3)CC2)c1C (centres undefined) | 1.18 | 4 | 12.7 | 6.32 | > 32 | > 32 | –
11 | CCOC(=O)c1cnc2ccc(CC)cc2c1O | 0.351 | > 32 | > 32 | > 32 | > 32 | > 32 | –
12 | CCN(CC)CCNc1ccnc2cc(Cl)ccc12 | 0.0581 | 10.3 | 17.3 | 10.2 | > 32 | 6.35 | –
13 | Cc1cc(Nc2ccc3ccccc3c2)n2ncnc2n1 | 0.242 | > 32 | > 32 | > 32 | > 32 | > 32 | –
14 | COc1cccc(Nc2nc(NCCO)c3ccccc3n2)c1 | 0.854 | 6.75 | 4.32 | 14.3 | 26.3 | 13.3 | –
15 | O=C(O)C1Cc2c([nH]c3ccccc23)C(c2ccc(Cl)cc2Cl)N1 (centres undefined) | 0.35 | > 32 | > 32 | > 32 | > 32 | > 32 | –
16 | COCCNCC(O)Cn1c2ccc(Cl)cc2c2cc(Cl)ccc21 (centres undefined) | 1.01 | 0.357 | 2.97 | 0.711 | 4.81 | 3.89 | –
17 | O=c1nc(C=Cc2ccc(Br)cc2)oc2ccccc12 | – | 16.1 | 4.06 | 16 | 4 | 4.17 | 94

Row | Structure (SMILES) | EC50 (Plasmodium falciparum [1]) [µM] | IC50 [2] [µM] | IC50 (Leishmania infantum) [µM] | IC50 [3] [µM] | IC50 [4] [µM] | IC50 (Trypanosoma cruzi) [µM] | inhibition at 5 µM (Plasmodium falciparum [5]) [%]
18 | CCN(CC)CCNc1ccnc2cc3ccccc3cc12 | 0.391 | 3.94 | 4.32 | 4.06 | 12.2 | 14.8 | –
19 | COc1ccc(Nc2cc(C)nc(NCc3ccccc3)n2)cc1 | 0.467 | 3.86 | 4.32 | 2.95 | 13.5 | 1.04 | –
20 | COc1ccc2c(c1)OC(O)(C(F)(F)C(F)(F)F)CC2=O (centres undefined) | 0.283 | 17.1 | 25.4 | > 32 | 25.6 | 16.1 | –
21 | CCN(CC)CCNc1ncnc2c1[nH]c1ccc(Br)cc12 | 0.707 | 16 | 16 | 16.3 | > 32 | 17.1 | –
22 | Cc1cc(N(C)C)nc(Nc2ccc(NC(=O)Nc3ccccc3)cc2)n1 | 1.15 | 1.25 | 4.32 | 5.54 | 23.8 | 1.03 | –
23 | CN(C)c1ccc(-c2nc3cc(N)ccc3[nH]2)cc1 | – | 18 | > 32 | 19.6 | > 32 | 17.4 | 64
24 | CCCC(c1nnnn1C1CCCCC1)N1CCN(C(=O)c2ccco2)CC1 (centres undefined) | – | > 32 | > 32 | > 32 | > 32 | > 32 | 82
25 | CC(C)(C)c1ccc(C(=O)Nc2c3c(nn2-c2cccc(Cl)c2)CSC3)cc1 | – | > 32 | > 32 | 16.1 | > 32 | > 32 | 93
26 | Oc1ccc(Br)cc1CN1CCN(Cc2cccc(F)c2)CC1 | 1.03 | 16.7 | 25.4 | > 32 | > 32 | 12.6 | –
27 | Clc1ccc2[nH]c3c(NCCCN4CCOCC4)ncnc3c2c1 | 0.7 | 3.94 | > 32 | > 32 | > 32 | 21.3 | –
28 | COc1ccc(Nc2nc(NCc3ccccc3)c3ccccc3n2)cc1 | 0.589 | 4.03 | 1.01 | 3.84 | 12.4 | 3.55 | –
29 | Cc1cc(Nc2ccc(Cl)cc2)n2nc(C(F)(F)F)nc2n1 | 0.212 | > 32 | > 32 | > 32 | > 32 | > 32 | –
30 | COc1cc2c(cc1OC)C1=NNC(=O)C1=NC(C)(C)C2 | 1.04 | 6.64 | 4.03 | 12.9 | > 32 | 3.59 | –
31 | CCCc1c(C)nc2ccccc2c1O | – | > 32 | > 32 | > 32 | > 32 | > 32 | 88
32 | Cc1cc(N2CCN(C3CCCC3)CC2)n2c(nc3ccccc32)c1C#N | 0.683 | > 32 | > 32 | > 32 | > 32 | > 32 | –
33 | Cc1ccc(Nc2nc(NCCO)c3ccccc3n2)cc1C | 0.428 | 3.83 | 2.52 | 8.22 | 11.4 | 2.99 | –
34 | CN1CCN(c2nc(Nc3ccc(O)cc3)nc3ccccc23)CC1 | 1.43 | 3.28 | 13.6 | 4.69 | > 32 | 11.1 | –

From ChEMBL document CHEMBL2028040, “Malaria Box”
